The values that follow come from patent publication US20230225991A1, “COMPOUNDS FOR USE IN THE TREATMENT OF ACUTE INTERMITTENT PORPHYRIA” (VESTLANDETS INNOVASJONSSELSKAP AS, priority 2019, published 2023).

The term ΔTm denotes the change in melting temperature against a reference sample. One may read the Vmax as the top rate of the reaction or transport when substrate is in excess.

Marks after values point to notes of the source that are not given here.

The target in test [1] is T1, WT-HMBS (Homo sapiens, UniProt P08397).
T1 construct: Full-length HMBS was cloned into pET-28a(+)-TEV vector and transformed into BL21 (DE3) cells for expression; 6xHis (N, cleaved yes); TEV protease cleavage site (N, cleaved yes); made in house; host or cells: E. coli BL21 (DE3)
T1 sequence (P08397 1-361): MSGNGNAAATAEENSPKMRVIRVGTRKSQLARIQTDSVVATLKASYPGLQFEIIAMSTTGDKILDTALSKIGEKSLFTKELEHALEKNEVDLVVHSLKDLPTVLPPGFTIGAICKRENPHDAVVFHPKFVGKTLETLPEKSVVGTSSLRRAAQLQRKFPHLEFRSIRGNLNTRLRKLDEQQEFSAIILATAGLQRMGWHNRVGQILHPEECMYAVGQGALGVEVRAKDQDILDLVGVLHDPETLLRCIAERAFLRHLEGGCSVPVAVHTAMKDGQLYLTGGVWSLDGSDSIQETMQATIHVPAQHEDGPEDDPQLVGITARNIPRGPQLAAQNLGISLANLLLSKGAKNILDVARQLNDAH
The experiment in a line: DSF thermal upshift (ΔTm) of HMBS. It is filed as binding. How it is done: Compounds BG-2, BG-3 and BG-4 were tested on recombinant WT-HMBS using DSF and tryptic proteolysis.

In test [2] the target is T1, WT-HMBS. Description: Steady-state enzyme kinetics of HMBS (KM, Vmax). It is filed as biochemical. To be noted: for Effect on steady-state enzyme kinetics of HMBS: 84 μM compound; for Vmax: variable PBG (0-1 mM), 37° C. The procedure:
The effect of the compounds on the stability of HMBS activity was assayed by pre-incubating the HMBS (4-5 μg) in 50 mM HEPES pH 8.2, 84 μM compound and 2% DMSO for 20 min at 70° C., and then placed on ice for 5 min. The enzymatic activity at 37° C. was subsequently measured as reported previously (Bustad et al., Bioscience reports 2013; 3 3(4)). Controls without compound but with equal concentration of DMSO were included. The remaining activity in the presence of compounds was normalized relative to DMSO-control (relative activity). […] USA, www.graphpad.com.
(§1) Limited tryptic proteolysis was also applied to compound BG-1. Proteolysis of WT-HMBS provided three major bands with relative content 34.5±0.3%, 14.7±0.8% and 50.9±0.5%, corresponding to remaining full-length HMBS (˜42.5 kDa), and two fragments of ˜41.0 kDa and ˜31.5 kDa, respectively (FIG. 1). […] The effect of this compound at 84 μM on the steady-state enzyme kinetics of HMBS was then calculated (Table 2).

Test [3] has as its target T1, WT-HMBS. The experiment in a line: Limited proteolysis by trypsin. It is filed as biochemical. The following applies: 84 μM compound; for Protection against tryptic proteolysis: 2% DMSO. How it is done:
Limited proteolysis by trypsin was performed at 37° C. in 20 mM HEPES, 150 mM NaCl, 2% DMSO, pH 8.2, with 0.15 μg/μl HMBS in the absence (DMSO-control) or presence of 84 μM compound and 2% DMSO. The proteolysis was initiated by adding 1 μg/ml TPCK-treated trypsin (Sigma-Aldrich). After 30 min, aliquots were removed and transferred to Laemmli loading buffer containing 2 μg/ml soybean trypsin inhibitor. Samples resolved by electrophoresis with 10% Mini-Protean® TGX™ gels (Bio-Rad Laboratories, Inc.) were analyzed using the Image Lab™ software (Bio-Rad Laboratories, Inc.). The unpaired t-test (two tailed) was performed using GraphPad Prism.
as §1

Test [4] addresses T2, HMBS in HepG2 cells over-expressing HMBS (Homo sapiens, UniProt P08397).
T2 construct: expressed in transfected cells; host or cells: HepG2 (stably transfected, G418-selected)
T2 sequence (P08397 1-361): T1 sequence (P08397 1-361)
The experiment in a line: HMBS protein level in WT-HMBS stably transfected HepG2 cells (western immunoblot). It is filed as cell-based. To be noted: 0-168 μM compound, 2% DMSO, 24 h; quantitative western immunoblotting. How it is done:
The human hepatoma HepG2 cells were obtained from Leibniz-Institut DSMZ—Deutsche Sammlung von Mikroorganismen und Zellkulturen GmbH. Cells were maintained in RPMI 1640, GlutaMAX™ (Thermo Fisher Scientific) medium supplemented with 10% heat-inactivated fetal bovine serum and 1% penicillin-streptomycin (Thermo Fisher Scientific) in a humidified incubator with 5% CO2 at 37° C. HMBS cDNA was inserted into the pcDNA3.1(+) cloning vector (Thermo Fisher Scientific). The HepG2 cells were then transfected with the pcDNA3.1(+) vector containing HMBS using FuGENE®HD Transfection Reagent (Promega, Madison, Wis.) according to the manufacturer's recommendations. Stably transfected clones were selected for resistance to the neomycin analogue G418 (Thermo Fisher Scientific). WT-HMBS transfected HepG2 cells (2×10^6) were seeded and grown for 22 h before compounds were added to final concentrations of 0, 40, 84, 120 and 168 μM in 2% DMSO. Cells were harvested after 24 h and analyzed as described below. […]
Cell lysate samples (20 μg total protein) were separated by electrophoresis and subsequently transferred to a PVDF transfer membrane (Bio-Rad). […] Chemiluminescence of secondary Ab-HRP conjugates was elicited using Luminata™ Crescendo Western HRP Substrate (Merck Millipore, Burlington, Mass.), imaged with Gel Doc™ XR+ (Bio-Rad) and quantified using Image Lab software (Bio-Rad). […]
For orientation: Immunoblotting shows a protein as a band on a membrane.

`O=C(c1ccccc1)c1ccc(Cl)c([N+](=O)[O-])c1` [BG-2]: the ΔTm at 122 µM on WT-HMBS [1] (Table 3, average compound concentration 122 μM (2% DMSO)) was found to be 4.9 °C. Moreover, the “Effect on steady-state enzyme kinetics of HMBS” value on WT-HMBS [2] is on record as “weak mixed inhibitory effect”. In addition, the Vmax on WT-HMBS [2] (Table 3, 84 μM compound with 2% DMSO, control 61 ± 2) is listed as 54 ± 2 nmol/min/mg. The “Protection against tryptic proteolysis” value at WT-HMBS [3] (Table 3) was “+* (+, >4%)”. Moreover, in test [4], the “Relative amount of HMBS in HepG2 cells” value is “increased the HMBS protein levels similarly to BG-1”.

Take `O=Cc1cc(Cc2ccccc2Cl)cc([N+](=O)[O-])c1O` [BG-1]: the ΔTm at 122 µM at WT-HMBS [1] (thermal upshift at y = 0.5 in scaled fluorescence curves, average compound concentration 122 μM (2% DMSO)) stood at 1.6 °C. Further, the “Effect on steady-state enzyme kinetics of HMBS” value at WT-HMBS [2] is “reduction in both KM and Vmax”. For the same compound, at WT-HMBS [2] (84 μM compound in 2% DMSO, DMSO control 61 ± 2), the Vmax was found to be 56 ± 1 nmol/min/mg. Further, at WT-HMBS [3] (remaining full-length HMBS relative to DMSO), the “Protection against tryptic proteolysis” value is given as “++** (++, 10% remaining full-length HMBS relative to DMSO.)”. Besides, the “Protection against proteolysis” value on WT-HMBS [3] (limited tryptic proteolysis) was “exhibited protection against proteolysis”. Besides, the “Relative amount of HMBS in HepG2 cells” value in test [4] is recorded as “increasing relative amount of HMBS with increasing concentration”.
